# From paper PMC4684281, “Antitumor Effects and Mechanism of Novel Emodin Rhamnoside Derivatives against Human Cancer Cells In Vitro” (PLoS ONE, 2015)
# Where “and” joins values, the source holds several entries; their conditions need not be identical. Equal entries are not always repeated. Where two headings read alike, the source gives them in different places.
# Key:
# OVCAR-3 cells = assay: MTT cell viability assay, OVCAR-3; type: cell-based, Human; settings: for IC50: OVCAR-3
# Method: (§1) The viability of cancer cells was evaluated by MTT assay. Briefly, cells were inoculated in 96-well culture plates at the density of 1×10^4/well with complete medium containing 10% fetal calf serum in a final volume of 0.2 mL. Cells were incubated at 37°C for at least 24 hours to allow optimal attachment. When the cells reached 60% confluence, they were treated with Cisplatin, HCPT and emodin rhamnopyranosides derivatives in various concentrations, and incubated in a humidity-controlled 5%CO2 incubator at 37°C for 72 hours. Medium were exchanged once every 24 hours. Cell control group and blank group were set up in the same manner, with each group having six parallel wells. Cell survival was assessed by directly adding 22 μL of 5mg/mL MTT to 0.2 mL medium. After three hours, the formazan precipitate was dissolved in 200μL isopropanol per well, and completely mixed under room temperature. Afterwards, the optical density of each well was detected at 570 nm wavelength by iMark microplate reader (Bio-rad,USA). This experiment was repeated at least three times.
# L02 normal liver cells = assay: MTT cell viability assay, L02; type: cell-based; settings: Homo sapiens; MTT at 72h, n=3, mean±S.E.M; read-out: IC50 for EM-d-Rha, L02
# Method: as §1
# K562 cells = assay: MTT cell viability assay, K562; type: cell-based; settings: Homo sapiens
# Method: as §1
# HepG2 cells = assay: Cell cycle analysis (PI staining); type: cell-based, Human; settings: 48h; for Percentage of cell cycle distribution, G2/M: control 9.68±3.46%; for Percentage of cell cycle distribution, G0/G1: control 67.48±3.94%
# Method: HepG2 cells in logarithmic growth phase were inoculated in 10cm culture plates at density of 5×10^5 cells and incubated overnight and allowed to attach. After being exposed to EM-d-Rha at specific concentrations for 48h, cells were harvested and washed with cold PBS twice. Then the collected cells were fixed with 1mL PBS and 3mL cold 100% ethanol at 4°C overnight. After that, the cells were again harvested by centrifugation at 300×g for 10 min. The cells were washed with cold PBS and re-suspended in 450 μL PBS, and then treated with 50μL ribonuclease (RNase,10mg/mL) at 37°C for 15min. 500μL of propidium iodide (PI, 50μg/ml) was added to the samples. After the cells were incubated for 30 min at 4°C in the dark, the cell cycle distribution was measured using an BD FACSCalibur Flow cytometer (BD Biosciences, USA), and 10,000cells were counted for each sample. The percentage of cells in different phases of the cell cycle was analyzed by flow Jo (BD Biosciences, USA). The experiment was repeated three times.
# [1] = tested on: Caspase-3 gene expression of HepG2 cells; assay: RT-qPCR gene expression, Caspase-3; type: cell-based, Human; settings: 48 hours, control 1.022±0.258
# Method: HepG2 cells were inoculated in 6-well culture plates at a density of 3×10^5 cells/well, and allowed to attach at 37°C for 24 hours. Then cells were treated with specific concentrations of EM-d-Rha and incubated in a humidified incubator supplied with 5% CO2 at 37°C for 48 hours. Medium were changed once every 24 hours. Afterwards, mRNA was extracted from every group using E.Z.N.A.^TM Total RNA Kit II according to the manufacturer’s instructions. The extracted mRNA was dissolved in 20 μL ddH2O (Qiagen) containing diethyl pyrocarbonate (DEPC). The concentration of mRNA was quantified with a NanoDrop ND-100 device (Thermo Fisher Scientific). cDNA was synthesized using 3μg of the extracted mRNA from each sample with PCR system (BIO-RAD,USA). The cDNA synthesis reaction was prepared according to the manufacturer’s instructions by mixing 3μg mRNA, 4.0μL 5× MMLV buffer, 3 μL oligodT18, 0.5μL 10 mM dNTP solution, 0.8μL RNase inhibitor, 3.7μL MMLV Rtase, and 6.0μL DEPC ddH2O in PCR tubes. The reaction condition was 5min at 70°C, 60 min at 42°C and 10min at 4°C. The products were used for subsequent RT-qPCR analysis. The level of mRNA expression was measured by RT-qPCR using a CFX96^TM C1000 Real-Time PCR System (BIO-RAD, USA).The primers were designed using idt.dna software system (http //www.idtdna.com). The specific primers were: Cyto C: 5′-[…]-3′ (forward), 5′- […] -3′ (reverse); Caspase 3: 5′- CCTACAGCCCATTTC TCCATAC-3′ (forward), 5′-[…]-′ (reverse); β-actin: 5′-[…]-3′ (forward), 5′-[…]-3′ (reverse). The product sizes of Cyto C, Caspase 3 and β-actin were 91bp, 125bp and 107bp, respectively. […]
# Master Mix (Promega), 0.3μL of each primer (10μM), and 1.0 μL cDNA template. […] Each sample was analyzed in quadruplicate and mean was used for further analysis. The mRNA expression levels of each sample were quantified by measuring the threshold cycle (CT) values of genes. The relative values of the target gene expression were calculated according to CT values of the target genes and the reference gene (β-actin) by applying Livak and Schmittgen method. […]
compound,measurement,setting,value
"CC(=O)O[C@@H]1[C@@H](O[C@@H]2O[C@@H](C)[C@H](O)[C@@H](OC(C)=O)[C@H]2OC(C)=O)[C@H](C)O[C@@H](Oc2cc(O)c3c(c2)C(=O)c2cc(C)cc(O)c2C3=O)[C@@H]1OC(C)=O [S-8, 3-(2”,3”-Di-O-acetyl-α-L-rhamnopyranosyl-(1→4)-2’,3’-di-O-acetyl-α-L-rhamnopyranosyl)-emodin]",IC50,"OVCAR-3 cells; Homo sapiens, MTT at 72h, n=3, mean±S.E.M, read-out: IC50 for EM-d-Rha, OVCAR-3",2260 ± 920 nM
same,IC50,"OVCAR-3 cells; Homo sapiens, MTT, 72 hours, read-out: IC50 values, OVCAR-3",0.61 µg/mL
same,inhibition at 0.1 µM,"OVCAR-3 cells; Homo sapiens, OVCAR-3, 0.1μM, MTT 72h, read-out: The inhibition rate of EM-d-Rha",1.4 ± 0.21%
same,inhibition at 0.5 µM,"OVCAR-3 cells; Homo sapiens, OVCAR-3, 0.5μM, MTT 72h, read-out: The inhibition rate of EM-d-Rha",2.95 ± 1.12%
same,inhibition at 2.5 µM,"OVCAR-3 cells; Homo sapiens, OVCAR-3, 2.5μM, MTT 72h, read-out: The inhibition rate of EM-d-Rha",66 ± 1.27%
same,inhibition at 12.5 µM,"OVCAR-3 cells; Homo sapiens, OVCAR-3, 12.5μM, MTT 72h, read-out: The inhibition rate of EM-d-Rha",83.6 ± 1.15%
same,inhibition at 62.5 µM,"OVCAR-3 cells; Homo sapiens, OVCAR-3, 62.5μM, MTT 72h, read-out: The inhibition rate of EM-d-Rha",90.64 ± 0.74%
same,"Decrease of IC50 compared to the IC50 of emodin, OVCAR-3",OVCAR-3 cells; from Table 1,42.3 fold
same,IC50,L02 normal liver cells,19700 ± 1700 nM
same,IC50,"K562 cells; K562, MTT at 72h, n=3, mean±S.E.M, read-out: IC50 for EM-d-Rha, K562",2800 ± 110 nM
same,inhibition at 0.1 µM,"K562 cells; K562, 0.1μM, MTT 72h, read-out: The inhibition rate of EM-d-Rha",0%
same,inhibition at 0.5 µM,"K562 cells; K562, 0.5μM, MTT 72h, read-out: The inhibition rate of EM-d-Rha",15.1 ± 1.13%
same,inhibition at 2.5 µM,"K562 cells; K562, 2.5μM, MTT 72h, read-out: The inhibition rate of EM-d-Rha",45.86 ± 0.11%
same,inhibition at 12.5 µM,"K562 cells; K562, 12.5μM, MTT 72h, read-out: The inhibition rate of EM-d-Rha",78.74 ± 0.01%
same,inhibition at 62.5 µM,"K562 cells; K562, 62.5μM, MTT 72h, read-out: The inhibition rate of EM-d-Rha",80.64 ± 0.03%
same,"Percentage of cell cycle distribution, G2/M","HepG2 cells; HepG2, 2.5μM",7.01±1.73%
same,"Percentage of cell cycle distribution, S","HepG2 cells; HepG2, 2.5μM, control 23.19±2.18%, listed as EM-d-Rha",28.59% and 28.59±3.75%
same,"Percentage of cell cycle distribution, G0/G1","HepG2 cells; HepG2, 2.5μM",61.37±2.16%
same,"Percentage of cell cycle distribution, G2/M","HepG2 cells; HepG2, 5.0μM",10.31±3.08%
same,"Percentage of cell cycle distribution, G0/G1","HepG2 cells; HepG2, 5.0μM",51.03±8.84%
same,"Percentage of cell cycle distribution, G2/M","HepG2 cells; HepG2, 10.0μM",7.96±2.07%
same,"Percentage of cell cycle distribution, G0/G1","HepG2 cells; HepG2, 10.0μM",52.35±9.37%
same,Caspase-3 mRNA expression level relative to controls,"[1]; HepG2, 0.70μM",0.949±0.259 fold
same,Caspase-3 mRNA expression level relative to controls,"[1]; HepG2, 1.40μM",0.900±0.190 fold
same,Caspase-3 mRNA expression level relative to controls,"[1]; HepG2, 5.60μM",4.413±3.730 fold
